Molecular target: T1, KRAS G12C 1-169, his-tagged protein, GDP-loaded (Homo sapiens, UniProt P01116, G12C)
T1 construct: KRAS G12C 1-169, his-tagged protein, GDP-loaded
Assay: Biochemical assay: covalent modification of KRAS G12C measured by mass spectrometry (RapidFire/TOF or Q-Exactive)
Settings: covalent binding to KRAS G12C
Outline: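 GDP-loaded his-tagged KRAS G12C 1-169 at 2 μM in 20 mM Hepes, 150 mM NaCl, 1 mM MgCl2 incubated at room temperature with compound (10, 30 or 100 μM final, 2% DMSO) for 30 min, 2 h or 24 h, then quenched with formic acid. Intact-protein LC-MS (RapidFire/TOF or Q-Exactive) with deconvolution quantified modified versus unmodified protein.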

For C=CC(=O)N1CCN(c2ncnc3c(F)c(-c4c(C)ccc5[nH]ncc45)c(Cl)cc23)[C@@H](C)C1 [III-25, 1-((3S)-4-(6-chloro-8-fluoro-7-(5-methyl-1H-indazol-4-yl)quinazolin-4-yl)-3-methyl-piperazin-1-yl)prop-2-en-1-one], the Binding % (compounds of structure (III)) was “+++ (+++ indicates binding activity greater than 90%)”.
For C=CC(=O)N1[C@H](C)CN(c2ncnc3c(F)c(-c4cc(O)cc5ccccc45)c(Cl)cc23)C[C@@H]1C [III-27, 1-((2S,6R)-4-(6-chloro-8-fluoro-7-(3-hydroxy-naphthalen-1-yl)quinazolin-4-yl)-2,6-dimethyl-piperazin-1-yl)prop-2-en-1-one], the Binding % (compounds of structure (III)) was “+++ (+++ indicates binding activity greater than 90%)”.
With C=CC(=O)N1CCN(c2nc(OCCc3ccc(C)nc3)nc3c(F)c(-c4c(O)cccc4F)c(Cl)cc23)CC1 [Example I-111, 1-(4-(6-chloro-8-fluoro-7-(2-fluoro-6-hydroxyphenyl)-2-(2-(6-methyl-pyridin-3-yl)ethoxy)quinazolin-4-yl)piperazin-1-yl) prop-2-en-1-one] the Binding % (compounds of structure (I)) was “+ (+ indicates binding activity up to 50%)”.
In the case of C=CC(=O)N1CCN(c2nc(OCc3cccnn3)nc3c(F)c(-c4c(O)cccc4F)c(Cl)cc23)CC1 [Example I-119, 1-(4-(6-chloro-8-fluoro-7-(2-fluoro-6-hydroxyphenyl)-2-(pyridazin-3-ylmethoxy)quinazolin-4-yl)piperazin-1-yl) prop-2-en-1-one], the Binding % (compounds of structure (I)) is reported as “+ (+ indicates binding activity up to 50%)”.
For C=CC(=O)N1CCN(c2nc(NC3CCN(C4CC4)CC3)nc3c(F)c(-c4c(C)ccc5[nH]ncc45)c(Cl)cc23)CC1 (atropisomer, axis not shown) [Example I-82, (R)-1-(4-(6-chloro-2-(1-cyclopropyl-piperidin-4-ylamino)-8-fluoro-7-(5-methyl-1H-indazol-4-yl)quinazolin-4-yl)piperazin-1-yl)prop-2-en-1-one], the Binding % (compounds of structure (I)) was “+++ (+++ indicates binding activity greater than 90%)”.
With C=CC(=O)N1CCN(c2ncnc3c(F)c(-c4c(F)cccc4OCc4cncn4C)c(Cl)cc23)CC1 [II-6, 1-(4-(6-chloro-8-fluoro-7-(2-fluoro-6-((1-methyl-1H-imidazol-5-yl)methoxy)phenyl)quinazolin-4-yl)piperazin-1-yl)prop-2-en-1-one] the Binding % (compounds of structure (II)) was “++ (++ indicates binding activity greater than 50% and less than 75%)”.
For C=CC(=O)N1C[C@H](C)N(c2ncnc3c(F)c(-c4c(O)cccc4F)c(Cl)cc23)C[C@H]1C [III-1, 1-((2R,5S)-4-(6-chloro-8-fluoro-7-(2-fluoro-6-hydroxy-phenyl)quinazolin-4-yl)-2,5-dimethyl-piperazin-1-yl)prop-2-en-1-one], the Binding % (compounds of structure (III)) was “++ (++ indicates activity from 50% to 90%)”.
For C=CC(=O)N1CCN(c2nc(CCN3CC(F)(F)C3)nc3c(F)c(-c4c(O)cccc4F)c(Cl)cc23)CC1 [Example I-200, 1-(4-(6-chloro-2-(2-(3,3-difluoro-azetidin-1-yl)ethyl)-8-fluoro-7-(2-fluoro-6-hydroxyphenyl)quinazolin-4-yl)piperazin-1-yl) prop-2-en-1-one], the Binding % (compounds of structure (I)) was “++ (++ indicates binding activity from 50 to 90%)”.
For C=CC(=O)N1CCN(c2nc(N3CCOCC3)nc3c(F)c(-c4cc(O)cc5ccccc45)c(Cl)cc23)CC1 [Example I-46, 1-(4-(6-chloro-8-fluoro-7-(3-hydroxy-naphthalen-1-yl)-2-morpholino-quinazolin-4-yl)piperazin-1-yl)prop-2-en-1-one], the Binding % (compounds of structure (I)) was “+++ (+++ indicates binding activity greater than 90%)”.
In the case of C=CC(=O)N1CCN(c2nc(OCCN3CCOCC3)nc3c(F)c(-c4c(C)ccc5[nH]ncc45)c(Cl)cc23)CC1 (atropisomer, axis not shown) [Example I-31, (R)-1-(4-(6-chloro-8-fluoro-7-(5-methyl-1H-indazol-4-yl)-2-(2-morpholino-ethoxy)quinazolin-4-yl)piperazin-1-yl)prop-2-en-1-one], the Binding % (compounds of structure (I)) is reported as “+++ (+++ indicates binding activity greater than 90%)”.
With C=CC(=O)N1CCN(c2nc(NCCc3ncccn3)nc3c(F)c(-c4c(O)cccc4F)c(Cl)cc23)CC1 [Example I-171, 1-(4-(6-chloro-8-fluoro-7-(2-fluoro-6-hydroxyphenyl)-2-((2-(pyrimidin-2-yl)ethyl)amino)quinazolin-4-yl)piperazin-1-yl) prop-2-en-1-one] the Binding % (compounds of structure (I)) was “++ (++ indicates binding activity from 50 to 90%)”.
C=CC(=O)N1CCN(c2nc(OCCNC)nc3c(F)c(-c4c(O)cccc4F)c(Cl)cc23)CC1 [Example I-86, 1-(4-(6-chloro-8-fluoro-7-(2-fluoro-6-hydroxyphenyl)-2-(2-(methyl-amino)ethoxy)quinazolin-4-yl)piperazin-1-yl)prop-2-en-1-one] was tested, and the Binding % (compounds of structure (I)) was “+++ (+++ indicates binding activity greater than 90%)”.
In the case of C=CC(=O)N1CCN(c2nc(OCC3CCN(CC(F)(F)F)CC3)nc3c(F)c(-c4c(O)cccc4F)c(Cl)cc23)CC1 [Example I-35, 1-(4-(6-chloro-8-fluoro-7-(2-fluoro-6-hydroxyphenyl)-2-((1-(2,2,2-trifluoroethyl)piperidin-4-yl)methoxy)quinazolin-4-yl)piperazin-1-yl)prop-2-en-1-one], the Binding % (compounds of structure (I)) is reported as “++ (++ indicates binding activity from 50 to 90%)”.
With C=CC(=O)N1CCN(c2nc(OCCN3CC(F)(F)C3)nc3c(F)c(-c4c(O)cccc4F)c(Cl)cc23)CC1 [Example I-36, 1-(4-(6-chloro-2-(2-(3,3-difluoroazetidin-1-yl)ethoxy)-8-fluoro-7-(2-fluoro-6-hydroxyphenyl)quinazolin-4-yl)piperazin-1-yl) prop-2-en-1-one] the Binding % (compounds of structure (I)) was “+++ (+++ indicates binding activity greater than 90%)”.
In the case of C=CC(=O)N1CCN(c2nc(NC3CCN(C4CCC4)CC3)nc3c(F)c(-c4c(C)ccc5[nH]ncc45)c(Cl)cc23)CC1 [Example I-132, 1-(4-(6-chloro-2-(1-cyclobutyl-piperidin-4-ylamino)-8-fluoro-7-(5-methyl-1H-indazol-4-yl)quinazolin-4-yl)piperazin-1-yl) prop-2-en-1-one], the Binding % (compounds of structure (I)) is reported as “+++ (+++ indicates binding activity greater than 90%)”.
In the case of C=CC(=O)N1CCN(c2nc(OCCC3CCN(C4CC4)CC3)nc3c(F)c(-c4c(O)cccc4F)c(Cl)cc23)CC1 [Example I-192, 1-(4-(6-chloro-2-(2-(1-cyclopropyl-piperidin-4-yl)ethoxy)-8-fluoro-7-(2-fluoro-6-hydroxyphenyl)quinazolin-4-yl)piperazin-1-yl) prop-2-en-1-one], the Binding % (compounds of structure (I)) is reported as “+++ (+++ indicates binding activity greater than 90%)”.
In the case of C=C(Cl)C(=O)N1CCN(c2nc(OCCN3CCOCC3)nc3c(F)c(-c4cc(O)cc5ccccc45)c(Cl)cc23)CC1 [Example I-73, 2-chloro-1-(4-(6-chloro-8-fluoro-7-(3-hydroxy-naphthalen-1-yl)-2-(2-morpholino-ethoxy)quinazolin-4-yl)piperazin-1-yl)prop-2-en-1-one], the Binding % (compounds of structure (I)) is reported as “+++ (+++ indicates binding activity greater than 90%)”.
In the case of C=CC(=O)N1C(C)CN(c2ncnc3c(F)c(-c4c(O)cccc4F)c(Cl)cc23)CC1C (stereo not drawn) [III-9, 1-(4-(6-chloro-8-fluoro-7-(2-fluoro-6-hydroxy-phenyl)quinazolin-4-yl)-2,6-dimethyl-piperazin-1-yl)prop-2-en-1-one], the Binding % (compounds of structure (III)) is reported as “++ (++ indicates activity from 50% to 90%)”.
With C=CC(=O)N1C[C@@H](C)N(c2ncnc3c(F)c(-c4c(O)cccc4F)c(Cl)cc23)[C@H](C)C1 [III-33, 1-((3R,5R)-4-(6-chloro-8-fluoro-7-(2-fluoro-6-hydroxy-phenyl)quinazolin-4-yl)-3,5-dimethyl-piperazin-1-yl)prop-2-en-1-one] the Binding % (compounds of structure (III)) was “+ (+ indicates binding activity up to 50%)”.
With C=C(F)C(=O)N1CCN(c2nc(OCCN3CCOCC3)nc3c(F)c(-c4c(O)cccc4F)c(Cl)cc23)CC1 [Example I-60, 1-(4-(6-chloro-8-fluoro-7-(2-fluoro-6-hydroxyphenyl)-2-(2-morpholino-ethoxy)quinazolin-4-yl)piperazin-1-yl)-2-fluoroprop-2-en-1-one] the Binding % (compounds of structure (I)) was “++ (++ indicates binding activity from 50 to 90%)”.
In the case of C=CC(=O)N1CCN(c2nc(NC3CCOC3)nc3c(F)c(-c4cc(O)cc5ccccc45)c(Cl)cc23)CC1 (stereo not drawn) [Example I-71, 1-(4-(6-chloro-8-fluoro-7-(3-hydroxy-naphthalen-1-yl)-2-(tetrahydro-furan-3-ylamino)quinazolin-4-yl)piperazin-1-yl)prop-2-en-1-one], the Binding % (compounds of structure (I)) is reported as “+++ (+++ indicates binding activity greater than 90%)”.
For C=CC(=O)N1CCN(c2nc(OC3CCC(O)CC3)nc3c(F)c(-c4c(O)cccc4F)c(Cl)cc23)CC1 (stereo not drawn) [Example I-63, 1-(4-(6-chloro-8-fluoro-7-(2-fluoro-6-hydroxyphenyl)-2-(4-hydroxy-cyclohexyloxy)quinazolin-4-yl)piperazin-1-yl)prop-2-en-1-one], the Binding % (compounds of structure (I)) was “+++ (+++ indicates binding activity greater than 90%)”.
With C=CC(=O)N1CCN(c2nc(N)nc3c(F)c(-c4cc(O)cc5ccccc45)c(Cl)cc23)CC1 [Example I-191, 1-(4-(2-amino-6-chloro-8-fluoro-7-(3-hydroxy-naphthalen-1-yl)quinazolin-4-yl)piperazin-1-yl) prop-2-en-1-one] the Binding % (compounds of structure (I)) was “+++ (+++ indicates binding activity greater than 90%)”.
In the case of C=CC(=O)N1CCN(c2nc(NCCP(C)(C)=O)nc3c(F)c(-c4c(O)cccc4F)c(Cl)cc23)CC1 [Example I-208, 1-(4-(6-chloro-2-(2-(dimethyl-phosphoryl)ethylamino)-8-fluoro-7-(2-fluoro-6-hydroxyphenyl)quinazolin-4-yl)piperazin-1-yl) prop-2-en-1-one], the Binding % (compounds of structure (I)) is reported as “++ (++ indicates binding activity from 50 to 90%)”.
